Columns and labels:
human Nav1.7 = human Nav1.7 (Homo sapiens (Human), UniProt Q15858); assay: Human Nav1.7 inhibitory activity evaluation (automated patch clamp QPatch16X, HEK293A cells stably expressing human Nav1.7 and human Navβ1); format: cell-based
In short: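 IC50 calculated from the concentration-response of inward current evoked by the second −10 mV, 50 ms depolarisation, which follows a 15 s conditioning step at roughly 30-40% inactivation and a 100 ms −120 mV interval. Cells: HEK293A expressing human Nav1.7/Navβ1, automated patch clamp, room temperature, 0.1% DMSO final.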

human Nav1.5 = human Nav1.5 (Homo sapiens (Human), UniProt Q14524); assay: Human Nav1.5 inhibitory activity evaluation (automated patch clamp QPatch16X, HEK293 cells stably expressing human Nav1.5); format: cell-based
human Nav1.5, sequence (Q14524 whole entry): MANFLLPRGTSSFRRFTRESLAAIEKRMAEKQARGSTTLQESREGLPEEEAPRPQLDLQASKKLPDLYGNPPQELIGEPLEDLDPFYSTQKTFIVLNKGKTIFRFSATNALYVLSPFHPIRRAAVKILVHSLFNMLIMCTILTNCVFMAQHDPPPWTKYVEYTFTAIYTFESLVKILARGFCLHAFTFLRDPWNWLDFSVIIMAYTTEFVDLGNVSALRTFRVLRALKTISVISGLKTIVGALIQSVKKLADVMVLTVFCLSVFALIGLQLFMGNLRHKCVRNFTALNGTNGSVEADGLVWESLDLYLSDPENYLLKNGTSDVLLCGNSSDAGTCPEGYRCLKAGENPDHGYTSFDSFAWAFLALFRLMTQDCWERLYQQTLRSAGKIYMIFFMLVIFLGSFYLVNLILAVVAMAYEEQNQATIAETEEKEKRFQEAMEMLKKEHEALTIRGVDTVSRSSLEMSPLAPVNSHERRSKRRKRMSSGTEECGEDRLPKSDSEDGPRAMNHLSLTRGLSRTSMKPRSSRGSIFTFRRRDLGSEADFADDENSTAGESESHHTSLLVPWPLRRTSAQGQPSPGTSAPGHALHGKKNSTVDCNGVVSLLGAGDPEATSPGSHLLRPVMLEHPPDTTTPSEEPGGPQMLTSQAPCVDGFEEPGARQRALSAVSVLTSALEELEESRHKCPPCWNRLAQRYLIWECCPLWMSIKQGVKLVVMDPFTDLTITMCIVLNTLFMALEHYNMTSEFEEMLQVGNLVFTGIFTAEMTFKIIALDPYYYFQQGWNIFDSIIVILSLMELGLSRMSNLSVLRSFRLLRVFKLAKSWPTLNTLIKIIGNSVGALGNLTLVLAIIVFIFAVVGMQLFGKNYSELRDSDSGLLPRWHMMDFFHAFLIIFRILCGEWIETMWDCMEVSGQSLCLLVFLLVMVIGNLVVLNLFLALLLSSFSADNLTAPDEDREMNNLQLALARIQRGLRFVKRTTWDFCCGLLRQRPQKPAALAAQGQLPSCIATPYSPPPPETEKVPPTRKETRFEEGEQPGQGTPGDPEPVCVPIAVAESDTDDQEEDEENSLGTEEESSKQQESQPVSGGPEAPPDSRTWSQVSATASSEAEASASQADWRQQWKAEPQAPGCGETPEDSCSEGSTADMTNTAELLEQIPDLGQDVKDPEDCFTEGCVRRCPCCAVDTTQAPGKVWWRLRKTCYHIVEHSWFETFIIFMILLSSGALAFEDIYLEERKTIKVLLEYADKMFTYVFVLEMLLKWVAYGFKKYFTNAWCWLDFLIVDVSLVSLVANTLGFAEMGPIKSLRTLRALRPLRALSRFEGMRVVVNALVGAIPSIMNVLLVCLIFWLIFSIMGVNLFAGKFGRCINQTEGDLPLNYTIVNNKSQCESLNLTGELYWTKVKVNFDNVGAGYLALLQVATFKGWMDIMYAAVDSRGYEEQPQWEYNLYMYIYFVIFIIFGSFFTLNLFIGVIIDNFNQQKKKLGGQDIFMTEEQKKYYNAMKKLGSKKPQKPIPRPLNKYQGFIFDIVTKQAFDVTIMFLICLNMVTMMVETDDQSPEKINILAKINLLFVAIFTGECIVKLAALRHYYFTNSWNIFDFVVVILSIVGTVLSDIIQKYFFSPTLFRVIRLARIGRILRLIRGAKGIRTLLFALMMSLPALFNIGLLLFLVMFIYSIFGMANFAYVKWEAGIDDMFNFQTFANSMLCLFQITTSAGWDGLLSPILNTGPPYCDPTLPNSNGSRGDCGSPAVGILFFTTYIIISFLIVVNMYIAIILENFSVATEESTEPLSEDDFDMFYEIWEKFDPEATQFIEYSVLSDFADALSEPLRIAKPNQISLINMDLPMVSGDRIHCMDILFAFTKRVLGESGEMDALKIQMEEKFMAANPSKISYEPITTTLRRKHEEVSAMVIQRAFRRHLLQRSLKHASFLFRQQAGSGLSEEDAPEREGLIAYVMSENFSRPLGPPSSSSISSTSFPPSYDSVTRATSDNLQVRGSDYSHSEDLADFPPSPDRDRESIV
Protocol: Test Example 2: Human Nav1.5 Inhibitory Activity Evaluation
A cell line in which human Nav1.5 was stably expressed in HEK293 cells was used. DMEM supplemeted with 15% fetal bovine serum, 500 μg/ml geneticin, 100 units/ml penicillin, 100 μg/ml streptomycin, 20 mM HEPES was used as culture medium under the conditions of 37° C. and 5% CO2 in T175 flasks to carry out culturing. When 60-80% confluence was reached, a cell suspension of about 0.5-5.0×10^6 cells/mL was prepared. The amount of current through human Nav1.5 was recorded using a fully automatic patch clamp device QPatch16X at room temperature. As the extracellular solution, 145 mM NaCl, 4 mM KCl, 1 mM MgCl2, 2 mM CaCl2, 10 mM Glucose, and 10 mM HEPES at pH 7.4 was used. As the intracellular solution, 135 mM CsF, ⅕ mM EGTA/CsOH, 10 mM HEPES, and 10 mM NaCl at pH 7.3 was used. The test compounds were dissolved in DMSO and diluted with the extracellular solution to attend the DMSO concentration of 0.1% at the time of assay.
The current response was obtained at a sampling frequency of 25 kHz, and noise was removed with a 3 kHz low-pass filter. The holding potential was −80 mV. Correction of the leakage current was carried out by applying a step pulse of −100 mV before the test pulse. In order to investigate human Nav1.5 inhibitory effect of the test compound, test pulses imitating the action potential of cardiomyocytes were continuously given 20 times. The test pulses were given before and after the test compound addition.
The inhibitory activity of the test compound was determined based on the amount of inward current generated by the 20th depolarization pulse, and the 50% inhibitory concentration (IC50) was calculated from the concentration-response curve.

[1] = HEK293A cells stably expressing human Nav1.7 and human Navβ1, automated patch clamp QPatch16X
[2] = HEK293 cells stably expressing human Nav1.5, automated patch clamp QPatch16X
[3] = human Nav1.7, automated patch clamp
[4] = human Nav1.5, automated patch clamp

human Nav1.7, sequence (Q15858 whole entry): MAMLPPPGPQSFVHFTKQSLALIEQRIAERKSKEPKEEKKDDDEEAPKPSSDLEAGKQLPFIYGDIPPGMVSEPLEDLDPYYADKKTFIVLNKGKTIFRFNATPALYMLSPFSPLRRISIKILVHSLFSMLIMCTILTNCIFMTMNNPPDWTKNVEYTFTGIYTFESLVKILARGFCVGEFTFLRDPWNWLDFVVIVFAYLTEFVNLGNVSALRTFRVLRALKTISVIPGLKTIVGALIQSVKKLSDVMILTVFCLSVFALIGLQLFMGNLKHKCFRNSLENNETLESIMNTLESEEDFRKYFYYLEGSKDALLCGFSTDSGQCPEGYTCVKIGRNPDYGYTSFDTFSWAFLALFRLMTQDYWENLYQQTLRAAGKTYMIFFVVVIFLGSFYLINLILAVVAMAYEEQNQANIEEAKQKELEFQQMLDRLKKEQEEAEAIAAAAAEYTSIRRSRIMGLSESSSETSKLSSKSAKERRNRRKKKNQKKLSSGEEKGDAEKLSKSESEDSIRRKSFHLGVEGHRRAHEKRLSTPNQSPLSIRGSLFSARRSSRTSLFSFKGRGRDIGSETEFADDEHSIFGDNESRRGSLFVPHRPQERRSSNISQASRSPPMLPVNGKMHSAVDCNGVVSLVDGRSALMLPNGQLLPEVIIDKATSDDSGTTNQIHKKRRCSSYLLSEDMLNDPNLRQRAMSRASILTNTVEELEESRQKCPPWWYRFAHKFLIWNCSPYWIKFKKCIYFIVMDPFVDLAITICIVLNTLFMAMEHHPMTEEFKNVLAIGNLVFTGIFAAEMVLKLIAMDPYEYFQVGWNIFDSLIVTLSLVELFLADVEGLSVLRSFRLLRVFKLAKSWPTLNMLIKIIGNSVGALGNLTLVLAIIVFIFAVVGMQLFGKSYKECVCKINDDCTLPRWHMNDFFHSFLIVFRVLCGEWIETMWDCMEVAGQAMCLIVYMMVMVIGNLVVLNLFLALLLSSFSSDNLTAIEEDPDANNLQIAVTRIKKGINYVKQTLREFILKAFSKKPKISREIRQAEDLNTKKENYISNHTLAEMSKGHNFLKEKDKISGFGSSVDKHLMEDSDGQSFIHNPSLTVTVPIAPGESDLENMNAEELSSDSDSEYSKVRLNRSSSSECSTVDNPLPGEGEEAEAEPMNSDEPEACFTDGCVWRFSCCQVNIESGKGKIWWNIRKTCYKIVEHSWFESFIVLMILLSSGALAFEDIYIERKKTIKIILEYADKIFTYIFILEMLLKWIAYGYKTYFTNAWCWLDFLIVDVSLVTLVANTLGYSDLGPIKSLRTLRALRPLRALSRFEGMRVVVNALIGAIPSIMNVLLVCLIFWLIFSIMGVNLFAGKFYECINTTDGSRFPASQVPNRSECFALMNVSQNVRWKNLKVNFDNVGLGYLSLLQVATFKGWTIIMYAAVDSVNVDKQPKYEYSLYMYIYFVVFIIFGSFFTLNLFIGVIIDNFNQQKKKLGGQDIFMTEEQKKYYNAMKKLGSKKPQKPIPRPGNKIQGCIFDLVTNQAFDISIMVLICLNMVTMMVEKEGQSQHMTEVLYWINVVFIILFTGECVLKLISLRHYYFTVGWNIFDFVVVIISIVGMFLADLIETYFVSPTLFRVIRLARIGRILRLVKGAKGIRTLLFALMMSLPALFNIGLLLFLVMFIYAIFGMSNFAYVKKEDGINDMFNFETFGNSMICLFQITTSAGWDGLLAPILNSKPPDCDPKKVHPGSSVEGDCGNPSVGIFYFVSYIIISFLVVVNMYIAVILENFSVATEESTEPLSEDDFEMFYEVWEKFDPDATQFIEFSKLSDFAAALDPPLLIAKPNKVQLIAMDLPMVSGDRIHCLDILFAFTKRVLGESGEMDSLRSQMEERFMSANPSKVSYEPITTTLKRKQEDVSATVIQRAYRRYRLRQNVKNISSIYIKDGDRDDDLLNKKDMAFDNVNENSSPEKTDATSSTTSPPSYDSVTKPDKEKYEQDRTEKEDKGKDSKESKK
human Nav1.7, sequence (Q07699 19-218 partner): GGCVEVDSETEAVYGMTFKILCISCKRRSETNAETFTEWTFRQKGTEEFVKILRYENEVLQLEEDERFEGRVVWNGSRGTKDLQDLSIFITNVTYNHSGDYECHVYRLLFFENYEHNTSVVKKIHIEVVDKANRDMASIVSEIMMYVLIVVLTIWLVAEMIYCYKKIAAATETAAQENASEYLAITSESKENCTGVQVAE

O=C(N[C@H]1COc2ccc(-c3ccccn3)cc2C1)c1cc2n(n1)CCC(COCC(F)(F)F)O2 (single isomer, unassigned) [131 (isomer B)]
IC50 (human Nav1.7; [1]): < 10 µM | IC50 (human Nav1.5; [2]): ≥ 3 µM

N#Cc1ccc2c(c1)C[C@@H](NC(=O)c1cc3n(n1)CCC(COC(F)(F)F)O3)CO2 (single isomer, unassigned) [134 (isomer B)]
IC50 (human Nav1.7; [1]): < 10 µM | IC50 (human Nav1.5; [2]): ≥ 3 µM

O=C(N[C@H]1COc2ccc(CC(F)F)cc2C1)c1cc2n(n1)CCC(COC(F)(F)F)O2 (single isomer, unassigned) [136 (isomer A)]
IC50 (human Nav1.7; [1]): < 1 µM | IC50 (human Nav1.5; [2]): < 1 µM

O=C(N[C@H]1COc2ccc(CC(F)F)cc2C1)c1cc2n(n1)CCC(COC(F)(F)F)O2 (single isomer, unassigned) [136 (isomer B)]
IC50 (human Nav1.7; [1]): < 1 µM | IC50 (human Nav1.5; [2]): 1 to 3 µM

O=C(N[C@H]1COc2ccc(COCC(F)(F)F)cc2C1)c1cc2n(n1)CCC(COC(F)F)O2 (single isomer, unassigned) [140 (isomer A)]
IC50 (human Nav1.7; [3]): < 1 µM | IC50 (human Nav1.5; [4]): ≥ 3 µM

O=C(N[C@H]1COc2ccc(COCC(F)(F)F)cc2C1)c1cc2n(n1)CCC(COC(F)F)O2 (single isomer, unassigned) [140 (isomer B)]
IC50 (human Nav1.7; [3]): < 1 µM | IC50 (human Nav1.5; [4]): 1 to 3 µM

O=C(N[C@H]1COc2ccc(CCOC(F)F)cc2C1)c1cc2n(n1)CCC(COC(F)F)O2 (single isomer, unassigned) [142 (isomer A)]
IC50 (human Nav1.7; [3]): < 1 µM | IC50 (human Nav1.5; [4]): 1 to 3 µM

O=C(N[C@H]1COc2ccc(CCOC(F)F)cc2C1)c1cc2n(n1)CCC(COC(F)F)O2 (single isomer, unassigned) [142 (isomer B)]
IC50 (human Nav1.7; [3]): < 1 µM | IC50 (human Nav1.5; [4]): ≥ 3 µM

N#Cc1ccc2c(c1)C[C@@H](NC(=O)c1cc3n(n1)CCC(CCOC(F)F)O3)CO2 (single isomer, unassigned) [146 (isomer B)]
IC50 (human Nav1.7; [3]): < 1 µM | IC50 (human Nav1.5; [4]): ≥ 3 µM

O=C(N[C@H]1COc2ccc(Cl)cc2C1)c1cc2n(n1)CCC(CNCC(F)(F)F)O2 (single isomer, unassigned) [152 (isomer A)]
IC50 (human Nav1.7; [3]): < 1 µM | IC50 (human Nav1.5; [4]): ≥ 3 µM

O=C(N[C@H]1COc2ccc(Cl)cc2C1)c1cc2n(n1)CCC(CN1CCC(F)(F)C1)O2 (single isomer, unassigned) [153 (isomer A)]
IC50 (human Nav1.7; [3]): < 1 µM | IC50 (human Nav1.5; [4]): 1 to 3 µM

N#Cc1ccc2c(c1)C[C@@H](NC(=O)c1cc3n(n1)CCC(CSC(F)(F)F)O3)CO2 (single isomer, unassigned) [156 (isomer A)]
IC50 (human Nav1.7; [3]): < 1 µM | IC50 (human Nav1.5; [4]): ≥ 3 µM

O=C(N[C@H]1COc2ccc(Cl)cc2C1)c1cc2n(n1)CCC(C(F)F)O2 (single isomer, unassigned) [158 (isomer A)]
IC50 (human Nav1.7; [3]): < 1 µM | IC50 (human Nav1.5; [4]): ≥ 3 µM

O=C(N[C@H]1COc2ccc(COCC(F)(F)F)cc2C1)c1cc2n(n1)CCC(C(F)F)O2 (single isomer, unassigned) [163 (isomer A)]
IC50 (human Nav1.7; [3]): < 1 µM | IC50 (human Nav1.5; [4]): 1 to 3 µM

O=C(N[C@H]1COc2ccc(Cl)cc2C1)c1cc2n(n1)CCC(C(F)(F)F)O2 (single isomer, unassigned) [170 (isomer A)]
IC50 (human Nav1.7; [3]): < 1 µM | IC50 (human Nav1.5; [4]): 1 to 3 µM

O=C(N[C@H]1COc2ccc(Cl)cc2C1)c1cc2n(n1)CCC(C(F)(F)F)O2 (single isomer, unassigned) [170 (isomer B)]
IC50 (human Nav1.7; [3]): < 1 µM | IC50 (human Nav1.5; [4]): < 1 µM

O=C(N[C@H]1COc2ccc(CC(F)F)cc2C1)c1cc2n(n1)CCC(C(F)(F)F)O2 (single isomer, unassigned) [173 (isomer A)]
IC50 (human Nav1.7; [3]): < 1 µM | IC50 (human Nav1.5; [4]): ≥ 3 µM

O=C(N[C@H]1COc2ccc(COCC(F)(F)F)cc2C1)c1cc2n(n1)CC(C(F)(F)F)O2 (single isomer, unassigned) [184 (isomer A)]
IC50 (human Nav1.7; [3]): < 1 µM | IC50 (human Nav1.5; [4]): 1 to 3 µM

O=C(N[C@H]1COc2ccc(COCC(F)(F)F)cc2C1)c1cc2n(n1)CC(COCC1CC1)O2 (single isomer, unassigned) [186 (isomer A)]
IC50 (human Nav1.7; [3]): < 10 µM | IC50 (human Nav1.5; [4]): ≥ 3 µM

O=C(N[C@H]1COc2ccc(COCC(F)(F)F)cc2C1)c1cc2n(n1)CC(COCC1CC1)O2 (single isomer, unassigned) [186 (isomer B)]
IC50 (human Nav1.7; [3]): < 1 µM | IC50 (human Nav1.5; [4]): 1 to 3 µM

O=C(N[C@H]1COc2ccc(COCC(F)(F)F)cc2C1)c1cc2n(n1)CC(COCC(F)(F)F)O2 (single isomer, unassigned) [188 (isomer A)]
IC50 (human Nav1.7; [3]): < 1 µM | IC50 (human Nav1.5; [4]): < 1 µM

O=C(N[C@H]1COc2ccc(COCC(F)(F)F)cc2C1)c1cc2n(n1)CC(COCC(F)(F)F)O2 (single isomer, unassigned) [188 (isomer B)]
IC50 (human Nav1.7; [3]): < 1 µM | IC50 (human Nav1.5; [4]): ≥ 3 µM

O=C(N[C@H]1COc2ccc(CCOC(F)F)cc2C1)c1cc2n(n1)CC(COCC(F)(F)F)O2 (single isomer, unassigned) [190 (isomer A)]
IC50 (human Nav1.7; [3]): < 1 µM | IC50 (human Nav1.5; [4]): ≥ 3 µM

Cc1cnc(-c2ccc3c(c2)C[C@@H](NC(=O)c2cc4n(n2)CC(COCC(F)(F)F)O4)CO3)cn1 (single isomer, unassigned) [194 (isomer B)]
IC50 (human Nav1.7; [3]): < 1 µM | IC50 (human Nav1.5; [4]): ≥ 3 µM

O=C(N[C@H]1COc2ccc(COCC(F)(F)F)cc2C1)c1cc2n(n1)CC(COC(F)(F)F)O2 (single isomer, unassigned) [196 (isomer A)]
IC50 (human Nav1.7; [3]): < 1 µM | IC50 (human Nav1.5; [4]): 1 to 3 µM

O=C(N[C@H]1COc2ccc(COCC(F)(F)F)cc2C1)c1cc2n(n1)CC(COC(F)(F)F)O2 (single isomer, unassigned) [196 (isomer B)]
IC50 (human Nav1.7; [3]): < 1 µM | IC50 (human Nav1.5; [4]): ≥ 3 µM

O=C(N[C@H]1COc2ccc(CC(F)F)cc2C1)c1cc2n(n1)CC(COC(F)(F)F)O2 (single isomer, unassigned) [198 (isomer B)]
IC50 (human Nav1.7; [3]): < 1 µM | IC50 (human Nav1.5; [4]): ≥ 3 µM

N#Cc1ccc2c(c1)C[C@@H](NC(=O)c1cc3n(n1)CC(CSCC(F)(F)F)O3)CO2 (single isomer, unassigned) [200 (isomer A)]
IC50 (human Nav1.7; [3]): < 10 µM | IC50 (human Nav1.5; [4]): ≥ 3 µM

N#Cc1ccc2c(c1)C[C@@H](NC(=O)c1cc3n(n1)CC(CSCC(F)(F)F)O3)CO2 (single isomer, unassigned) [200 (isomer B)]
IC50 (human Nav1.7; [3]): < 1 µM | IC50 (human Nav1.5; [4]): ≥ 3 µM

N#Cc1ccc2c(c1)C[C@@H](NC(=O)c1cc3n(n1)CC(CCOCC1CC1)O3)CO2 (single isomer, unassigned) [202 (isomer A)]
IC50 (human Nav1.7; [3]): < 1 µM | IC50 (human Nav1.5; [4]): ≥ 3 µM

N#Cc1ccc2c(c1)C[C@@H](NC(=O)c1cc3n(n1)CC(CCOCC1CC1)O3)CO2 (single isomer, unassigned) [202 (isomer B)]
IC50 (human Nav1.7; [3]): < 1 µM | IC50 (human Nav1.5; [4]): < 1 µM

COc1ncc(-c2ccc3c(c2)C[C@@H](NC(=O)c2cc4n(n2)CC(CCOCC2CC2)O4)CO3)cn1 (single isomer, unassigned) [204 (isomer B)]
IC50 (human Nav1.7; [3]): < 1 µM | IC50 (human Nav1.5; [4]): 1 to 3 µM

O=C(N[C@H]1COc2ccc(-c3ccccn3)cc2C1)c1cc2n(n1)CC(CCOCC(F)(F)F)O2 (single isomer, unassigned) [207 (isomer B)]
IC50 (human Nav1.7; [3]): < 1 µM | IC50 (human Nav1.5; [4]): 1 to 3 µM

N#Cc1ccc2c(c1)C[C@@H](NC(=O)c1cc3n(n1)CC(CCOC(F)(F)F)O3)CO2 (single isomer, unassigned) [209 (isomer B)]
IC50 (human Nav1.7; [3]): < 1 µM | IC50 (human Nav1.5; [4]): < 1 µM

Cn1ccc(-c2ccc3c(c2)C[C@@H](NC(=O)c2cc4n(n2)CC(CCOC(F)(F)F)O4)CO3)n1 (single isomer, unassigned) [213 (isomer A)]
IC50 (human Nav1.7; [3]): < 1 µM | IC50 (human Nav1.5; [4]): ≥ 3 µM

From patent US12421225B2, “Heteroaromatic amide derivative and medicament containing the same” (KAKEN PHARMACEUTICAL CO., LTD., priority 2018, dated 2025)
